For series [1] the following is noted: dairy cows, cited from earlier work.
In series [2] the test system is human colon cancer cells SW480. As to the kind of experiment: Anti-proliferative activity of fermented oils, MTS cell viability. As to the method:
The probiotic strain Lactobacillus paracasei ssp. paracasei NFBC 338 (Lb. paracasei NFBC 338) was previously isolated from the human gastrointestinal tract (GIT), and obtained from University College Cork, Ireland under a restricted materials transfer agreement. Lb. paracasei NFBC 338 was routinely cultured overnight (˜17 h) in MRS broth (Oxoid Ltd., Hampshire, UK) and incubated at 37° C. under anaerobic conditions using anaerobic jars containing Anaerocult A gas packs (Merck, Darmstedt, Germany). L. lactis carrying the plasmids pNZ44 were routinely cultured in the presence of chloramphenicol (5 μg/ml) as a selective marker. Lb. paracasei NFBC harboring the vector pMSP3535 were routinely cultured with erythromycin (10 μg/ml) as selective marker. E. coli TOP 10 (Invitrogen) harbouring the plasmid pNZ44 was cultured in LB (Luria-Bertani)-media supplemented with chloramphenicol (20 μg/ml). Human colon cancer cells were obtained from the American Type Culture Collection (ATCC, Manassas, Va., USA). The t10, c12 CLA isomer (98%+purity) was obtained from Matreya (Matreya Inc., PA, USA;). Cell culture media and supplements were purchased from Sigma Aldrich Ireland Ltd. (Dublin, Ireland), unless otherwise stated. SW480 cells were maintained in Dulbecco's […] (DMEM) supplemented with 5% (v/v) fetal bovine serum, 0.2 mM L-glutamine, 1 mM HEPES and 1 unit/ml penicillin and streptomycin. SW480 cells were grown in 96 well plates and maintained at 37° C. in a humidified atmosphere and a pH of 7.2-7.4 by a required flow of 95% air and 5% CO2.
To examine the anti-proliferative activity of the oils extracted following fermentation of the cultures (L. lactis pNZ44-coPAI and E. coli pNZ44-coPAI) in respective media containing linoleic acid (0.5 mg/ml), human colon cancer cells SW480 were cultured in the presence of different concentrations of the fermented oils. Initially, 1×10^4 cells were seeded in wells and cultured for 24 h at 37° C. to allow the cells to adhere to the surface prior to treatment with 5-20 μg t10, c12 CLA (from fermented oils and t10, c12 CLA standards in ethanol) and 5-25 μg linoleic acid (control unfermented oil and Sigma standard)/ml of media. […] Control flasks were supplemented with ethanol to a final concentration of 0.1% (v/v). Following incubation for 5 days, cell viability was measured and relative cell number were determined using the MTS method (Promega Corporation, Madison, Wis., USA), a colorimetric method for determining the number of viable cells in proliferation or cytotoxicity assays subsequent to incubation with MTS tetrazolium compound. Following incubation with MTS for 2 h, the absorbance was recorded at 492 nm with a 96-well plate reader. Cell viability (%) after treatment is expressed relative to the ethanol control, which represented 100%.
All figures are related to ethanol controls=100% cell viability.

Series [3] concerns MCF-7 breast cancer cell line. The following applies: cited from earlier work; for Decrease in cell numbers / cell viability: MCF-7, 20 μg/ml for 8 days, O'Shea et al., 1999.
In a further series the test system is SW480 cells. The following applies: cited from earlier work; for Reduction of cell viability: SW480, Miller et al. (2002); for Effect on SW480 cancer cells: 2003.

Like-named read-outs stand apart in the source and are kept apart here.

Take `CCCCC/C=C\C=C\CCCCCCCCC(=O)O` [t10, c12 CLA, trans-10, cis-12 octadecadienoic acid]: in series [1] (4 days abomasal infusion), the “Decrease in milk fat yield” value is reported as 44% and the “Reduction in milk fat percentage” value is listed as 42%. In series [2] (10-15 μg/ml (p<0.001) and 20 μg/ml (p<0.01)), the “Difference in cell viability versus L. lactis t10, c12 CLA” value is “significant difference”. Also, in series [2] (at any concentration, Student's t test), the “Difference in cell viability versus E. coli t10, c12 CLA (fermented oil)” value is reported as “no significant difference”. Also, in series [3], the “Decrease in cell numbers / cell viability” value is listed as 15%. Moreover, the Reduction of viability in series [3] (MCF-7, 4 days incubation with 16 μg/ml, Miller et al., 2001) is reported as 50-60%. Also, in the series with SW480 cells (SW480, 4 days incubation with 16 μg/ml, Miller et al., 2001), the Reduction of viability is 50-60%. Besides, in the series on SW480 cells, the “Reduction of cell viability” value is given as 47-61%.
Consider `CCCCC/C=C\C/C=C\CCCCCCCC(=O)O` [linoleic acid, 9 cis, 12 cis-octadecadienoic acid], for which the viability at 25 µg/mL in series [2] (Homo sapiens, SW480, 120 h, read-out: Cell viability) came to 93.2%. In addition, the “Difference in cell viability versus control-linoleic acid (unfermented oil)” value in series [2] (Student's t test) is on record as “No significant difference”. In addition, the “Effect on SW480 cancer cells” value in the series with SW480 cells (16.9 μg/ml media (60.2 μM), Miller et al.) is reported as “slightly proliferative effect”; with SW480 cells (42.8 μg/ml media (152.5 μM), Miller et al.), “anti-proliferative effect”. Besides, the Increase of viability in the series on SW480 cells (SW480, same amount (16 μg/ml), 4 days) is on record as 23%.
Consider `CCCCC/C=C\C/C=C\CCCCCCCC(=O)O` [control-unfermented LA], for which the “Effect on the cell viability” value in series [2] (SW480, 5-25 μg/ml linoleic acid) is “only a minor effect”.
On to `CCCCCC/C=C/C=C\CCCCCCCC(=O)O` [c9, t11 CLA, cis-9, trans-11-octadecadienoic acid], for which the “Effect on milk fat” value in series [1] (abomasal infusion) is “no effect”. In series [3], the “Decrease in cell numbers / cell viability” value is 60%. The “Reduction of cell viability” value in the series with SW480 cells was 40-52%.

The values are drawn from patent US20090105341A1, “PROCESS FOR THE PRODUCTION OF TRANS-10, CIS 12 OCTADECADIENOIC ACID” (Teagasc Dairy Products Research Centre, priority 2005, published 2009).
